In brackets after ≈: the same amount, converted by molar mass. Activity calls are given as the source filed them. No cut-off for these calls is given here.
Key:
[1] = Solubility of the compound in water at 25 degC by HPLC analysis; format: physicochemical
Plasma [2] = test: Drug level in Sprague-Dawley rat plasma treated with 5 mg/kg, iv after 10 mins to 4 hrs; format: ADME, organism-based; parameters: dose 5 mg/kg, route intravenous; conditions: in vivo
[3] = biological target: Prostaglandin G/H synthase 1 (Homo sapiens) (UniProt P23219); test: Inhibition of recombinant COX-1 (unknown origin) at 0.1 uM
Prostaglandin G/H synthase 1 (Homo sapiens), sequence (P23219 whole entry): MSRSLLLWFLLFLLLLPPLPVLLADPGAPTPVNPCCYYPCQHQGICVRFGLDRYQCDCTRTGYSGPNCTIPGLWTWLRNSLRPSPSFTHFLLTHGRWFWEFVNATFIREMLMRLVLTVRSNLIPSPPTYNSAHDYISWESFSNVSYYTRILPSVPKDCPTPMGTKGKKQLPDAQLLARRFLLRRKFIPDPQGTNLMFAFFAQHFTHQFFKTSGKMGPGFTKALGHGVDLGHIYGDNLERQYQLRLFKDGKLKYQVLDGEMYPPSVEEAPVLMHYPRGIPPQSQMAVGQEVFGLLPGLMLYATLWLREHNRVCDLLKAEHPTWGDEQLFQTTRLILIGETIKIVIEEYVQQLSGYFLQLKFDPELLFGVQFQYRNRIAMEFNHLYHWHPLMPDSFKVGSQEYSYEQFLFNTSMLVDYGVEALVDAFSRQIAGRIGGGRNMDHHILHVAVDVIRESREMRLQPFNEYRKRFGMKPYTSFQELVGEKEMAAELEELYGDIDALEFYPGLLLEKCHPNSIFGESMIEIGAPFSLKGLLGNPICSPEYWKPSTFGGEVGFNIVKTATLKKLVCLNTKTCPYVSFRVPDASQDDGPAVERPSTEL

[4] = biological target: T1, Prostaglandin G/H synthase 2 (Homo sapiens) (UniProt P35354); test: Inhibition of recombinant COX-2 (unknown origin) at 0.1 uM
T1 sequence (whole entry): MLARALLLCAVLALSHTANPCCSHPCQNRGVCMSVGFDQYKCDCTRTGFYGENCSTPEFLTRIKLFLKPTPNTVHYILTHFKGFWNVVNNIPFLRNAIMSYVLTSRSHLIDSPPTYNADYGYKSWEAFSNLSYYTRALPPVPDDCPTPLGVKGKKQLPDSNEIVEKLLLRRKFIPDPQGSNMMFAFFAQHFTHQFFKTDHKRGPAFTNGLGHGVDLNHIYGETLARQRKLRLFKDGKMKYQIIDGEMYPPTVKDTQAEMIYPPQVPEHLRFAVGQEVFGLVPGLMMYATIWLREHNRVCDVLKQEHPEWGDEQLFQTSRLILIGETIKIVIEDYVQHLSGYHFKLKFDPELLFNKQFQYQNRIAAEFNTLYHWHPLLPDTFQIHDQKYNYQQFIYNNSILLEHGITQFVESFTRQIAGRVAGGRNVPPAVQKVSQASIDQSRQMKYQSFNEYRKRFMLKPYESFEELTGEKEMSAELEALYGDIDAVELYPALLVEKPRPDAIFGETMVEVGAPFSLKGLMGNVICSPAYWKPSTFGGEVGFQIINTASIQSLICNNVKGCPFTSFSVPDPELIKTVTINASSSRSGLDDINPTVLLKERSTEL

Mus musculus [5] = test: Analgesic activity in Kun Ming mouse model assessed as inhibition of acetic acid-induced visceral pain at 0.1 mmol/kg, iv administered 5 mins prior to acetic acid challenge measured after 15 mins by writhing assay relative to control; format: functional; parameters: scale not given: the % may be the effect or the level left
Mus musculus [6] = test: Analgesic activity in Kun Ming mouse model assessed as inhibition of acetic acid-induced visceral pain at 0.1 mmol/kg, iv administered 5 mins prior to acetic acid challenge measured after 30 mins by writhing assay relative to control; format: functional; parameters: scale not given: the % may be the effect or the level left
Plasma [7] = test: Prodrug conversion in Sprague-Dawley rat plasma assessed as PC407 formation at 5 mg/kg, iv after 1.5 hrs; format: ADME, organism-based; parameters: dose 5 mg/kg, route intravenous; conditions: in vivo
[8] = biological target: Prostaglandin G/H synthase 1 (Homo sapiens) (UniProt P23219); test: Inhibition of recombinant COX-1 (unknown origin) at 10 uM
[9] = biological target: T1, Prostaglandin G/H synthase 2 (Homo sapiens); test: Inhibition of recombinant COX-2 (unknown origin) at 10 uM
[10] = Toxicity in iv dosed Kun Ming mouse; format: organism-based; conditions: in vivo

Q: Which results are given for `NS(=O)(=O)c1ccc(-n2nc(C(F)(F)F)cc2-c2ccc3ccccc3c2)cc1`?
A: solubility [1]: 0.0016 mg/mL (≈ 3.83 µM); Drug uptake (Plasma [2]): Active; inhibition [3]: inactive; inhibition [4]: 100%; Activity (Mus musculus [5]): 83%; Activity (Mus musculus [6]): 81%

Q: Which solubility [1] does the source give for `O=C([O-])CCC(=O)[N-]S(=O)(=O)c1ccc(-n2nc(C(F)(F)F)cc2-c2ccc3ccccc3c2)cc1.[Na+].[Na+]` here?
A: The solubility was 20.3 mg/mL.

Q: And the Drug metabolism (Plasma [7])?
A: Its Drug metabolism is “metabolite_detected”.

Q: And the inhibition [8]?
A: The inhibition was “inactive”.

Q: And the inhibition [9]?
A: The inhibition was “inactive”.

Q: What about the Activity (Mus musculus [5]) of the same compound?
A: The Activity was 77%.

Q: What about the Activity (Mus musculus [6]) of the same compound?
A: The Activity was 83%.

Q: And the MTD [10]?
A: Its MTD is > 1500 mg/kg.

Reference: ChEMBL document CHEMBL3351954, “Enhanced water-soluble derivative of PC407 as a novel potential COX-2 inhibitor injectable formulation” (Bioorg Med Chem Lett, 2014)
